Results published in publication PMC11229374, “Unlocking the potential of protein-derived peptides to target G-quadruplex DNA: from recognition to anticancer activity” (Nucleic Acids Research, 2024).
Values joined by “and” are separate entries in the source; they are usually repeats but may differ in a detail not shown here. Equal entries are not always repeated.

Legend:
[1] = system: HER2 G4; test: Isothermal titration calorimetry (ITC) with HER2 G4; format: binding, human; conditions: ITC at 25°C, triplicate
Protocol: ITC experiments were conducted at 25°C using a nano-ITC Low Volume calorimeter (TA instruments, Lindon, UT, USA). DNA and peptide solutions were prepared using the same batch of buffer (5 mM KH2PO4/K2HPO4 buffer containing 20 mM KCl, pH 7.0) to prevent differences in buffer composition and pH. Each titration consisted of 25 injections of a 2 μl peptide solution (280–400 μM) sequentially injected using a computer-controlled 50 μl syringe, into the calorimetric vessel (190 μl) containing the oligonucleotide (16–20 μM). A spacing of 300 s between each injection was applied to allow the system to reach the equilibrium. The heat generated by peptide dilution was assessed in a control experiment by injecting the peptide solution into the buffer (Supplementary Figure S30). All measurements were performed in triplicate. Subsequently, the interaction heat for each injection was calculated considering the correction for the heat of peptide dilution. The corrected heat values were plotted as a function of the molar ratio to provide binding isotherms. […] The equilibrium dissociation constant (Kd), Gibbs free-energy change and entropy change were determined using the following relationships: Kd = 1/Ka, ΔG° = -RT ln Ka (R = 8.314 J mol^−1 K^−1, T = 298.15 K), and TΔS° = ΔH° – ΔG°.

[2] = biological target: HT1 G4; test: Microscale thermophoresis (MST) binding to HT1 G4; design: species or system human; conditions: 25°C, 20 nM FITC-labelled peptide, DNA serial dilution, 5 mM KH2PO4/K2HPO4 pH 7.0, 20 mM KCl, 0.1% Tween, 5% DMSO
Protocol: (§1) MST experiments were conducted using a Monolith NT.115 instrument (NanoTemper Technologies, Munich, Germany) at 25°C with medium MST power settings. […] DNA samples were also diluted using the same buffer supplemented with 0.1% Tween. During MST experiments, the concentration of the labelled peptide was kept constant at 20 nM, while a serial dilution of the investigated DNA molecules (ranging from 10 or 20 μM) was prepared and mixed with the peptide solution in a 1:1 volume ratio. All the samples, with a final concentration of 5% DMSO, were loaded into standard capillaries (NanoTemper Technologies) for MST measurements. Data analysis was carried out using the MO.Affinity Analysis (v2.3) software provided with the instrument.

[3] = biological target: HT-FANA G4; test: Microscale thermophoresis (MST) binding to HT-FANA G4; design: species or system human; conditions: 25°C, 20 nM FITC-labelled peptide, DNA serial dilution, 5 mM KH2PO4/K2HPO4 pH 7.0, 20 mM KCl, 0.1% Tween, 5% DMSO
Protocol: as §1

[4] = biological target: HER2 G4; test: Microscale thermophoresis (MST) binding to HER2 G4; design: species or system human; conditions: 25°C, 20 nM FITC-labelled peptide, DNA serial dilution, 5 mM KH2PO4/K2HPO4 pH 7.0, 20 mM KCl, 0.1% Tween, 5% DMSO
Protocol: as §1

[5] = system: c-KIT1 G4; conditions: CD melting at 264 nm, 2 μM DNA, 1 mol equiv peptide, 5 mM KH2PO4/K2HPO4 pH 7.0, 20 mM KCl, 1°C/min; average of three; T1/2 DNA alone 53.8°C
Protocol: (§2) CD experiments were carried out using a Jasco J-815 spectropolarimeter equipped with a PTC-423S/15 Peltier temperature controller. G4-forming and duplex-forming DNA molecules were prepared at a concentration of 2 μM in 5 mM KH2PO4/K2HPO4 buffer (pH 7.0) containing 20 mM KCl or LiCl. CD spectra of DNA/peptide mixtures were obtained by adding 1 mol equiv of peptide (stock solutions of 10 mM in H2O) with respect to the oligonucleotide. CD spectra of DNA molecules in the absence and presence of peptide were recorded at 20 and 100°C in the wavelength range of 220−320 nm and averaged over three scans, utilizing a scan rate of 100 nm/min with a 0.5 s response time and 1 nm bandwidth. The buffer baseline was subtracted from each spectrum. Additionally, CD spectra of Myb1^397–415 in the absence and presence of G4s were recorded at 20°C in the 200−250 nm wavelength range using a scan rate of 20 nm/min, with a 4 s response time and 2 nm bandwidth. The G4 spectra were subtracted from the corresponding G4/peptide mixtures to obtain information on the peptide spectrum in the presence of G4. The percentage of secondary structures adopted by the peptide in the absence and presence of the G4s was estimated using the BeStSel software ([26]). CD melting experiments were performed in the absence and presence of peptides (1 or 2 mol equiv) in the 20−100°C temperature range at 1°C/min heating rate, monitoring changes of the CD signal at wavelengths corresponding to the maximum CD intensity for the G4s (264 nm for c-KIT1, c-KIT2, c-MYC, HER2, HT-FANA, BCL-2, and VEGFR-17T; 290 nm for HRAS1, LWDLN1, HT1, and HT2) and at 252 nm for ds12 duplex. The apparent melting temperatures (T1/2) were determined using non-linear curve fitting with OriginLab© 2021 software (OriginLab Corp., MA, USA). ΔT1/2 values were calculated as the difference in the T1/2 values of the DNA structures in the presence and absence of a peptide.

[6] = system: BCL-2 G4; conditions: CD melting at 264 nm, 2 μM DNA, 1 mol equiv peptide, 5 mM KH2PO4/K2HPO4 pH 7.0, 20 mM KCl, 1°C/min; average of three; T1/2 DNA alone 60.7°C
Protocol: as §2

[7] = system: ds12 duplex; conditions: CD melting at 252 nm, 2 μM DNA, 1 mol equiv peptide, 5 mM KH2PO4/K2HPO4 pH 7.0, 20 mM KCl, 1°C/min; average of three; T1/2 DNA alone 62.7°C
Protocol: as §2

[8] = system: HT-FANA G4; conditions: CD melting at 264 nm, 2 μM DNA, 1 mol equiv peptide, 5 mM KH2PO4/K2HPO4 pH 7.0, 20 mM KCl, 1°C/min; average of three; T1/2 DNA alone 62.9°C
Protocol: as §2

[9] = system: HER2 G4; conditions: CD melting at 264 nm, 2 μM DNA, 1 mol equiv peptide, 5 mM KH2PO4/K2HPO4 pH 7.0, 20 mM KCl, 1°C/min; average of three; T1/2 DNA alone 62.4°C
Protocol: as §2

[10] = system: c-MYC G4; conditions: CD melting at 264 nm, 2 μM DNA, 1 mol equiv peptide, 5 mM KH2PO4/K2HPO4 pH 7.0, 20 mM LiCl, 1°C/min; average of three; T1/2 DNA alone 68.2°C
Protocol: as §2

[11] = biological target: BCL-2 G4; test: Microscale thermophoresis (MST) binding to BCL-2 G4; design: species or system human; conditions: 25°C, 20 nM FITC-labelled peptide, DNA serial dilution, 5 mM KH2PO4/K2HPO4 pH 7.0, 20 mM KCl, 0.1% Tween, 5% DMSO
Protocol: as §1

Q: How did the Ka ([1]; HER2 G4 16–20 μM, peptide 280–400 μM, 5 mM KH2PO4/K2HPO4, 20 mM KCl, pH 7.0) turn out when “Ac-NHTGNSIRHRFRVYLSKRL-NH2 [Myb^397–415]” was run?
A: Its Ka is 1.0 × 10^7 M^−1 and 1.0 (±0.1) ×10^7 M^−1.

Q: What about the Kd ([1]; HER2 G4, Kd = 1/Ka) of the same substance?
A: The Kd was 100 nM.

Q: What about the Kd [2] of the same substance?
A: Its Kd is 900 nM.

Q: What about the Kd [3] of the same substance?
A: Its Kd is 140 nM.

Q: What about the Kd [4] of the same substance?
A: Its Kd is 130 nM.

Q: And the “ΔT1/2 of c-KIT1 G4” value [5]?
A: The value was 6.2 (±0.2) °C.

Q: And the “ΔT1/2 of BCL-2 G4” value [6]?
A: The value was 8.0 (±0.2) °C.

Q: What about the “ΔT1/2 of ds12 duplex” value [7] of the same substance?
A: Its value is 1.0 °C and 1.0 (±0.2) °C.

Q: And the “ΔT1/2 of HT-FANA G4” value [8]?
A: The value was 8.3 °C and 8.3 (±0.2) °C.

Q: What about the “ΔT1/2 of HER2 G4” value [9] of the same substance?
A: The value was 7.0 (±0.2) °C.

Q: And the “ΔT1/2 of c-MYC G4” value [10]?
A: The value was 5.0 (±0.2) °C.

Q: And the Kd [11]?
A: Its Kd is 280 nM.
